Measured values as given in patent US20140120232A1, “ACID TASTE/ACID SMELL-REDUCING AGENT” (T. HASEGAWA CO., LTD., priority 2011, published 2014).

Test: Sensory evaluation of Vermont drink containing the agent
Conditions: ten panels
Protocol: Water was added to a mixture of 10 g of apple-cider vinegar (acetic acid: 4.8%), 3 g of honey, 7 g of fructose-glucose liquid sugar mixed with sugar, 0.02 g of citric acid, 0.002 g of trisodium citrate, and 0.1 g of a Vermont flavor (manufactured by T. Hasegawa Co., Ltd.) to give a total amount of 100 mL. To the resulting mixture was added (Z,Z)-4,7-tridecadienal as the acid taste and/or acid smell-reducing agent of the present invention in concentrations shown in the following Table 1 to give Vermont drinks containing the agent.
Sensory evaluation of each drink was carried out by ten panels. […] The piercing aroma characteristic to aldehydes is a characteristic aroma common to every aldehyde and refers to an irritant off-smell giving an image of deteriorated oils and fats, soap, metals, Houttuynia cordata, etc. The judgment of smell was performed by comparing the effects at different concentrations of the acid taste and/or acid smell-reducing agent, and a concentration giving the highest acid taste/acid smell quality was selected. […]

CCCCC/C=C/C/C=C/CCC=O [(E,E)-4,7-tridecadienal]
A: number of panels, acid taste/acid smell extreme and cause irritation (0.005 ppt): 10 | B: number of panels, acid taste/acid smell slightly strong and slightly cause irritation (0.005 ppt): 0 | C: number of panels, acid taste/acid smell slightly unpleasant (0.005 ppt): 0 | Flavor judgment: number of panels who judged acid taste/acid smell quality the highest (0.005 ppt): 0 | N: number of panels, irritation of acid reduced to give a mild acid taste (0.005 ppt): 0 | X: number of panels, acid taste reduced but piercing odor characteristic to aldehydes unpleasant (0.005 ppt): 0 | A: number of panels, acid taste/acid smell extreme and cause irritation (0.02 ppt): 10 | B: number of panels, acid taste/acid smell slightly strong and slightly cause irritation (0.02 ppt): 0 | C: number of panels, acid taste/acid smell slightly unpleasant (0.02 ppt): 0 | Flavor judgment: number of panels who judged acid taste/acid smell quality the highest (0.02 ppt): 0 | N: number of panels, irritation of acid reduced to give a mild acid taste (0.02 ppt): 0 | X: number of panels, acid taste reduced but piercing odor characteristic to aldehydes unpleasant (0.02 ppt): 0 | A: number of panels, acid taste/acid smell extreme and cause irritation (0.1 ppt): 10 | B: number of panels, acid taste/acid smell slightly strong and slightly cause irritation (0.1 ppt): 0 | C: number of panels, acid taste/acid smell slightly unpleasant (0.1 ppt): 0 | Flavor judgment: number of panels who judged acid taste/acid smell quality the highest (0.1 ppt): 0 | N: number of panels, irritation of acid reduced to give a mild acid taste (0.1 ppt): 0 | X: number of panels, acid taste reduced but piercing odor characteristic to aldehydes unpleasant (0.1 ppt): 0 | A: number of panels, acid taste/acid smell extreme and cause irritation (0.2 ppt): 8 | B: number of panels, acid taste/acid smell slightly strong and slightly cause irritation (0.2 ppt): 2 | C: number of panels, acid taste/acid smell slightly unpleasant (0.2 ppt): 0 | Flavor judgment: number of panels who judged acid taste/acid smell quality the highest (0.2 ppt): 0 | N: number of panels, irritation of acid reduced to give a mild acid taste (0.2 ppt): 0 | X: number of panels, acid taste reduced but piercing odor characteristic to aldehydes unpleasant (0.2 ppt): 0 | A: number of panels, acid taste/acid smell extreme and cause irritation (0.5 ppt): 6 | B: number of panels, acid taste/acid smell slightly strong and slightly cause irritation (0.5 ppt): 2 | C: number of panels, acid taste/acid smell slightly unpleasant (0.5 ppt): 2 | Flavor judgment: number of panels who judged acid taste/acid smell quality the highest (0.5 ppt): 0 | N: number of panels, irritation of acid reduced to give a mild acid taste (0.5 ppt): 0 | X: number of panels, acid taste reduced but piercing odor characteristic to aldehydes unpleasant (0.5 ppt): 0 | A: number of panels, acid taste/acid smell extreme and cause irritation (1 ppb): 0 | B: number of panels, acid taste/acid smell slightly strong and slightly cause irritation (1 ppb): 0 | C: number of panels, acid taste/acid smell slightly unpleasant (1 ppb): 3 | Flavor judgment: number of panels who judged acid taste/acid smell quality the highest (1 ppb): 0 | N: number of panels, irritation of acid reduced to give a mild acid taste (1 ppb): 4 | X: number of panels, acid taste reduced but piercing odor characteristic to aldehydes unpleasant (1 ppb): 3 | A: number of panels, acid taste/acid smell extreme and cause irritation (1 ppt): 0 | B: number of panels, acid taste/acid smell slightly strong and slightly cause irritation (1 ppt): 4 | C: number of panels, acid taste/acid smell slightly unpleasant (1 ppt): 5 | Flavor judgment: number of panels who judged acid taste/acid smell quality the highest (1 ppt): 0 | N: number of panels, irritation of acid reduced to give a mild acid taste (1 ppt): 1 | X: number of panels, acid taste reduced but piercing odor characteristic to aldehydes unpleasant (1 ppt): 0 | A: number of panels, acid taste/acid smell extreme and cause irritation (5 ppt): 0 | B: number of panels, acid taste/acid smell slightly strong and slightly cause irritation (5 ppt): 1 | C: number of panels, acid taste/acid smell slightly unpleasant (5 ppt): 3 | Flavor judgment: number of panels who judged acid taste/acid smell quality the highest (5 ppt): 4 | N: number of panels, irritation of acid reduced to give a mild acid taste (5 ppt): 6 | X: number of panels, acid taste reduced but piercing odor characteristic to aldehydes unpleasant (5 ppt): 0 | A: number of panels, acid taste/acid smell extreme and cause irritation (10 ppb): 0 | B: number of panels, acid taste/acid smell slightly strong and slightly cause irritation (10 ppb): 0 | C: number of panels, acid taste/acid smell slightly unpleasant (10 ppb): 1 | Flavor judgment: number of panels who judged acid taste/acid smell quality the highest (10 ppb): 0 | N: number of panels, irritation of acid reduced to give a mild acid taste (10 ppb): 3 | X: number of panels, acid taste reduced but piercing odor characteristic to aldehydes unpleasant (10 ppb): 6 | A: number of panels, acid taste/acid smell extreme and cause irritation (20 ppt): 0 | B: number of panels, acid taste/acid smell slightly strong and slightly cause irritation (20 ppt): 0 | C: number of panels, acid taste/acid smell slightly unpleasant (20 ppt): 3 | Flavor judgment: number of panels who judged acid taste/acid smell quality the highest (20 ppt): 3 | N: number of panels, irritation of acid reduced to give a mild acid taste (20 ppt): 7 | X: number of panels, acid taste reduced but piercing odor characteristic to aldehydes unpleasant (20 ppt): 0 | A: number of panels, acid taste/acid smell extreme and cause irritation (50 ppb): 0 | B: number of panels, acid taste/acid smell slightly strong and slightly cause irritation (50 ppb): 0 | C: number of panels, acid taste/acid smell slightly unpleasant (50 ppb): 0 | Flavor judgment: number of panels who judged acid taste/acid smell quality the highest (50 ppb): 0 | N: number of panels, irritation of acid reduced to give a mild acid taste (50 ppb): 3 | X: number of panels, acid taste reduced but piercing odor characteristic to aldehydes unpleasant (50 ppb): 7 | A: number of panels, acid taste/acid smell extreme and cause irritation (100 ppt): 0 | B: number of panels, acid taste/acid smell slightly strong and slightly cause irritation (100 ppt): 0 | C: number of panels, acid taste/acid smell slightly unpleasant (100 ppt): 3 | Flavor judgment: number of panels who judged acid taste/acid smell quality the highest (100 ppt): 3 | N: number of panels, irritation of acid reduced to give a mild acid taste (100 ppt): 7 | X: number of panels, acid taste reduced but piercing odor characteristic to aldehydes unpleasant (100 ppt): 0 | A: number of panels, acid taste/acid smell extreme and cause irritation (500 ppt): 0 | B: number of panels, acid taste/acid smell slightly strong and slightly cause irritation (500 ppt): 2 | C: number of panels, acid taste/acid smell slightly unpleasant (500 ppt): 3 | Flavor judgment: number of panels who judged acid taste/acid smell quality the highest (500 ppt): 0 | N: number of panels, irritation of acid reduced to give a mild acid taste (500 ppt): 3 | X: number of panels, acid taste reduced but piercing odor characteristic to aldehydes unpleasant (500 ppt): 2

CCCCC/C=C/C/C=C/C=C/C=O [(E,E,E)-2,4,7-tridecatrienal]
A: number of panels, acid taste/acid smell extreme and cause irritation (0.005 ppt): 10 | B: number of panels, acid taste/acid smell slightly strong and slightly cause irritation (0.005 ppt): 0 | C: number of panels, acid taste/acid smell slightly unpleasant (0.005 ppt): 0 | Flavor judgment: number of panels who judged acid taste/acid smell quality the highest (0.005 ppt): 0 | N: number of panels, irritation of acid reduced to give a mild acid taste (0.005 ppt): 0 | X: number of panels, acid taste reduced but piercing odor characteristic to aldehydes unpleasant (0.005 ppt): 0 | A: number of panels, acid taste/acid smell extreme and cause irritation (0.02 ppt): 10 | B: number of panels, acid taste/acid smell slightly strong and slightly cause irritation (0.02 ppt): 0 | C: number of panels, acid taste/acid smell slightly unpleasant (0.02 ppt): 0 | Flavor judgment: number of panels who judged acid taste/acid smell quality the highest (0.02 ppt): 0 | N: number of panels, irritation of acid reduced to give a mild acid taste (0.02 ppt): 0 | X: number of panels, acid taste reduced but piercing odor characteristic to aldehydes unpleasant (0.02 ppt): 0 | A: number of panels, acid taste/acid smell extreme and cause irritation (0.1 ppt): 10 | B: number of panels, acid taste/acid smell slightly strong and slightly cause irritation (0.1 ppt): 0 | C: number of panels, acid taste/acid smell slightly unpleasant (0.1 ppt): 0 | Flavor judgment: number of panels who judged acid taste/acid smell quality the highest (0.1 ppt): 0 | N: number of panels, irritation of acid reduced to give a mild acid taste (0.1 ppt): 0 | X: number of panels, acid taste reduced but piercing odor characteristic to aldehydes unpleasant (0.1 ppt): 0 | A: number of panels, acid taste/acid smell extreme and cause irritation (0.2 ppt): 9 | B: number of panels, acid taste/acid smell slightly strong and slightly cause irritation (0.2 ppt): 1 | C: number of panels, acid taste/acid smell slightly unpleasant (0.2 ppt): 0 | Flavor judgment: number of panels who judged acid taste/acid smell quality the highest (0.2 ppt): 0 | N: number of panels, irritation of acid reduced to give a mild acid taste (0.2 ppt): 0 | X: number of panels, acid taste reduced but piercing odor characteristic to aldehydes unpleasant (0.2 ppt): 0 | A: number of panels, acid taste/acid smell extreme and cause irritation (0.5 ppt): 7 | B: number of panels, acid taste/acid smell slightly strong and slightly cause irritation (0.5 ppt): 1 | C: number of panels, acid taste/acid smell slightly unpleasant (0.5 ppt): 2 | Flavor judgment: number of panels who judged acid taste/acid smell quality the highest (0.5 ppt): 0 | N: number of panels, irritation of acid reduced to give a mild acid taste (0.5 ppt): 0 | X: number of panels, acid taste reduced but piercing odor characteristic to aldehydes unpleasant (0.5 ppt): 0 | A: number of panels, acid taste/acid smell extreme and cause irritation (1 ppb): 0 | B: number of panels, acid taste/acid smell slightly strong and slightly cause irritation (1 ppb): 0 | C: number of panels, acid taste/acid smell slightly unpleasant (1 ppb): 2 | Flavor judgment: number of panels who judged acid taste/acid smell quality the highest (1 ppb): 0 | N: number of panels, irritation of acid reduced to give a mild acid taste (1 ppb): 4 | X: number of panels, acid taste reduced but piercing odor characteristic to aldehydes unpleasant (1 ppb): 4 | A: number of panels, acid taste/acid smell extreme and cause irritation (1 ppt): 0 | B: number of panels, acid taste/acid smell slightly strong and slightly cause irritation (1 ppt): 7 | C: number of panels, acid taste/acid smell slightly unpleasant (1 ppt): 3 | Flavor judgment: number of panels who judged acid taste/acid smell quality the highest (1 ppt): 0 | N: number of panels, irritation of acid reduced to give a mild acid taste (1 ppt): 1 | X: number of panels, acid taste reduced but piercing odor characteristic to aldehydes unpleasant (1 ppt): 0 | A: number of panels, acid taste/acid smell extreme and cause irritation (5 ppt): 0 | B: number of panels, acid taste/acid smell slightly strong and slightly cause irritation (5 ppt): 2 | C: number of panels, acid taste/acid smell slightly unpleasant (5 ppt): 3 | Flavor judgment: number of panels who judged acid taste/acid smell quality the highest (5 ppt): 2 | N: number of panels, irritation of acid reduced to give a mild acid taste (5 ppt): 5 | X: number of panels, acid taste reduced but piercing odor characteristic to aldehydes unpleasant (5 ppt): 0 | A: number of panels, acid taste/acid smell extreme and cause irritation (10 ppb): 0 | B: number of panels, acid taste/acid smell slightly strong and slightly cause irritation (10 ppb): 0 | C: number of panels, acid taste/acid smell slightly unpleasant (10 ppb): 2 | Flavor judgment: number of panels who judged acid taste/acid smell quality the highest (10 ppb): 0 | N: number of panels, irritation of acid reduced to give a mild acid taste (10 ppb): 2 | X: number of panels, acid taste reduced but piercing odor characteristic to aldehydes unpleasant (10 ppb): 6 | A: number of panels, acid taste/acid smell extreme and cause irritation (20 ppt): 0 | B: number of panels, acid taste/acid smell slightly strong and slightly cause irritation (20 ppt): 1 | C: number of panels, acid taste/acid smell slightly unpleasant (20 ppt): 3 | Flavor judgment: number of panels who judged acid taste/acid smell quality the highest (20 ppt): 5 | N: number of panels, irritation of acid reduced to give a mild acid taste (20 ppt): 6 | X: number of panels, acid taste reduced but piercing odor characteristic to aldehydes unpleasant (20 ppt): 0 | A: number of panels, acid taste/acid smell extreme and cause irritation (50 ppb): 0 | B: number of panels, acid taste/acid smell slightly strong and slightly cause irritation (50 ppb): 0 | C: number of panels, acid taste/acid smell slightly unpleasant (50 ppb): 0 | Flavor judgment: number of panels who judged acid taste/acid smell quality the highest (50 ppb): 0 | N: number of panels, irritation of acid reduced to give a mild acid taste (50 ppb): 3 | X: number of panels, acid taste reduced but piercing odor characteristic to aldehydes unpleasant (50 ppb): 7 | A: number of panels, acid taste/acid smell extreme and cause irritation (100 ppt): 0 | B: number of panels, acid taste/acid smell slightly strong and slightly cause irritation (100 ppt): 2 | C: number of panels, acid taste/acid smell slightly unpleasant (100 ppt): 2 | Flavor judgment: number of panels who judged acid taste/acid smell quality the highest (100 ppt): 3 | N: number of panels, irritation of acid reduced to give a mild acid taste (100 ppt): 6 | X: number of panels, acid taste reduced but piercing odor characteristic to aldehydes unpleasant (100 ppt): 0 | A: number of panels, acid taste/acid smell extreme and cause irritation (500 ppt): 0 | B: number of panels, acid taste/acid smell slightly strong and slightly cause irritation (500 ppt): 0 | C: number of panels, acid taste/acid smell slightly unpleasant (500 ppt): 4 | Flavor judgment: number of panels who judged acid taste/acid smell quality the highest (500 ppt): 0 | N: number of panels, irritation of acid reduced to give a mild acid taste (500 ppt): 4 | X: number of panels, acid taste reduced but piercing odor characteristic to aldehydes unpleasant (500 ppt): 2
